From PubChem BioAssay AID226 (DTP/NCI, 2004)
Several values for one entry are separate records, joined by “and”; a condition that tells them apart may be missing. Identical values can stand only once. Toxic doses and inconclusive results are not listed.

Tested on: B6C3F1 mice, intracerebral ependymoblastoma, median survival T/C
Assay: NCI In Vivo Anticancer Drug Screen. Data for tumor model Ependymoblastoma (intracerebral) in B6C3F1 mice
Conditions: endpoint: median survival time, higher = longer survival
Method: The antitumor activity of compounds was measured in mice bearing transplantable tumors. Survival or tumor size were measured and the results are expressed as the measurement made in the treated group (T) divided by the measurement made in the vehicle treated control group (C). The tumor model used in this assay is Ependymoblastoma (intracerebral) in B6C3F1 mice

[1] = dose: 25.0 mg/kg/injection, schedule: Q01DX005 (ip), vehicle: Klucel (hydroxypropylcellulose) (HPC)
[2] = dose: 50.0 mg/kg/injection, schedule: Q01DX005 (ip), vehicle: Klucel (hydroxypropylcellulose) (HPC)
[3] = dose: 100.0 mg/kg/injection, schedule: Q01DX005 (ip), vehicle: Klucel (hydroxypropylcellulose) (HPC)
[4] = dose: 200.0 mg/kg/injection, schedule: Q01DX005 (ip), vehicle: Klucel (hydroxypropylcellulose) (HPC)
[5] = dose: 400.0 mg/kg/injection, schedule: Q01DX005 (ip), vehicle: Klucel (hydroxypropylcellulose) (HPC)
[6] = dose: 8.0 mg/kg/injection, schedule: Q01DX005 (ip), vehicle: saline with Tween-80
[7] = dose: 16.0 mg/kg/injection, schedule: Q01DX005 (ip), vehicle: saline with Tween-80
[8] = dose: 32.0 mg/kg/injection, schedule: Q01DX005 (ip), vehicle: saline with Tween-80
[9] = dose: 64.0 mg/kg/injection, schedule: Q01DX005 (ip), vehicle: saline with Tween-80
[10] = dose: 2.0 mg/kg/injection, schedule: Q01DX005 (ip), vehicle: saline
[11] = dose: 4.0 mg/kg/injection, schedule: Q01DX005 (ip), vehicle: saline
[12] = dose: 8.0 mg/kg/injection, schedule: Q01DX005 (ip), vehicle: saline
[13] = dose: 16.0 mg/kg/injection, schedule: Q01DX005 (ip), vehicle: saline
[14] = dose: 32.0 mg/kg/injection, schedule: Q01DX005 (ip), vehicle: saline
[15] = dose: 64.0 mg/kg/injection, schedule: Q01DX005 (ip), vehicle: saline
[16] = dose: 256.0 mg/kg/injection, schedule: Q01DX005 (ip), vehicle: saline
[17] = dose: 128.0 mg/kg/injection, schedule: Q01DX005 (ip), vehicle: saline with Tween-80
[18] = dose: 256.0 mg/kg/injection, schedule: Q01DX005 (ip), vehicle: saline with Tween-80
[19] = dose: 128.0 mg/kg/injection, schedule: Q01DX005 (ip), vehicle: saline

## COc1cccc2c1C(=O)c1c(O)c3c(c(O)c1C2=O)C[C@@](O)(C(C)=O)C[C@@H]3OC1CC(N)C(O)C(C)O1 (some centres undefined)
dose: 0.12 mg/kg/injection, schedule: Q01DX005 (ip), vehicle: water
  T/C: 105 % of control
dose: 0.25 mg/kg/injection, schedule: Q01DX005 (ip), vehicle: water
  T/C: 102 % of control
dose: 0.5 mg/kg/injection, schedule: Q01DX005 (ip), vehicle: water
  T/C: 93 % of control and 105 % of control
dose: 1.0 mg/kg/injection, schedule: Q01DX005 (ip), vehicle: water
  T/C: 92 % of control and 93 % of control
dose: 2.0 mg/kg/injection, schedule: Q01DX005 (ip), vehicle: water
  T/C: 104 % of control

## NC(=O)c1ncn(C2OC(CO)C(O)C2O)c1O (centres undefined)
[1]
  T/C: 92 % of control
[2]
  T/C: 101 % of control and 115 % of control
[3]
  T/C: 96 % of control and 101 % of control
[4]
  T/C: 105 % of control and 115 % of control
[5]
  T/C: 111 % of control

## O=P1(NCCCl)OCCC(OO)N1CCCl (centres undefined)
dose: 40.0 mg/kg/injection, schedule: Q01DX001 (ip), vehicle: Klucel (hydroxypropylcellulose) (HPC)
  T/C: 106 % of control and 119 % of control
dose: 80.0 mg/kg/injection, schedule: Q01DX001 (ip), vehicle: Klucel (hydroxypropylcellulose) (HPC)
  T/C: 115 % of control
dose: 240.0 mg/kg/injection, schedule: Q01DX001 (ip), vehicle: Klucel (hydroxypropylcellulose) (HPC)
  T/C: 150 % of control

## Nc1nc(=S)c2ncn(C3CC(O)C(CO)O3)c2[nH]1 (centres undefined)
dose: 4.0 mg/kg/injection, schedule: Q01DX005 (ip), vehicle: saline with Tween-80
  T/C: 93 % of control and 96 % of control
[6]
  T/C: 103 % of control
[7]
  T/C: 92 % of control
[8]
  T/C: 91 % of control and 102 % of control
[9]
  T/C: 100 % of control and 90 % of control

## O=c1[nH]cc(F)c(=O)[nH]1
dose: 0.5 mg/kg/injection, schedule: Q01DX005 (ip), vehicle: saline
  T/C: 108 % of control
dose: 1.0 mg/kg/injection, schedule: Q01DX005 (ip), vehicle: saline
  T/C: 108 % of control
[10]
  T/C: 111 % of control
[11]
  T/C: 113 % of control
[12]
  T/C: 105 % of control
[13]
  T/C: 105 % of control
[14]
  T/C: 120 % of control

## Nc1ccn(C2OC(COC(=O)C34CC5CC(CC(C5)C3)C4)C(O)C2O)c(=O)n1 (centres undefined)
dose: 6.25 mg/kg/injection, schedule: Q01DX005 (ip), vehicle: Klucel (hydroxypropylcellulose) (HPC)
  T/C: 98 % of control and 105 % of control
dose: 12.5 mg/kg/injection, schedule: Q01DX005 (ip), vehicle: Klucel (hydroxypropylcellulose) (HPC)
  T/C: 100 % of control and 105 % of control
[1]
  T/C: 104 % of control and 116 % of control
[2]
  T/C: 109 % of control

## CCOC(=O)CNC(=O)CCCCSc1ncnc2nc[nH]c12
[11]
  T/C: 106 % of control
dose: 16.0 mg/kg/injection, schedule: Q01DX001 (oral), vehicle: Klucel (hydroxypropylcellulose) (HPC)
  T/C: 95 % of control
dose: 16.0 mg/kg/injection, schedule: Q01DX005 (ip), vehicle: Klucel (hydroxypropylcellulose) (HPC)
  T/C: 100 % of control and 105 % of control
[13]
  T/C: 95 % of control and 101 % of control
dose: 32.0 mg/kg/injection, schedule: Q01DX005 (ip), vehicle: Klucel (hydroxypropylcellulose) (HPC)
  T/C: 96 % of control
dose: 64.0 mg/kg/injection, schedule: Q01DX001 (oral), vehicle: Klucel (hydroxypropylcellulose) (HPC)
  T/C: 92 % of control
dose: 64.0 mg/kg/injection, schedule: Q01DX005 (ip), vehicle: Klucel (hydroxypropylcellulose) (HPC)
  T/C: 95 % of control and 104 % of control and 109 % of control
[15]
  T/C: 96 % of control and 109 % of control
dose: 128.0 mg/kg/injection, schedule: Q01DX005 (ip), vehicle: Klucel (hydroxypropylcellulose) (HPC)
  T/C: 98 % of control
dose: 256.0 mg/kg/injection, schedule: Q01DX001 (oral), vehicle: Klucel (hydroxypropylcellulose) (HPC)
  T/C: 105 % of control
dose: 256.0 mg/kg/injection, schedule: Q01DX005 (ip), vehicle: Klucel (hydroxypropylcellulose) (HPC)
  T/C: 102 % of control and 108 % of control
[16]
  T/C: 105 % of control and 112 % of control
dose: 512.0 mg/kg/injection, schedule: Q01DX005 (ip), vehicle: Klucel (hydroxypropylcellulose) (HPC)
  T/C: 96 % of control
dose: 1024.0 mg/kg/injection, schedule: Q01DX005 (ip), vehicle: Klucel (hydroxypropylcellulose) (HPC)
  T/C: 100 % of control and 119 % of control and 121 % of control
dose: 1024.0 mg/kg/injection, schedule: Q01DX005 (ip), vehicle: saline
  T/C: 111 % of control and 124 % of control

## OCC1OC(n2cnc3c(SCc4ccccc4)ncnc32)C(O)C1O (centres undefined)
dose: 37.5 mg/kg/injection, schedule: Q01DX005 (ip), vehicle: saline with Tween-80
  T/C: 97 % of control
dose: 75.0 mg/kg/injection, schedule: Q01DX005 (ip), vehicle: saline with Tween-80
  T/C: 106 % of control
dose: 150.0 mg/kg/injection, schedule: Q01DX005 (ip), vehicle: saline with Tween-80
  T/C: 120 % of control

## Nc1nncs1
dose: 6.25 mg/kg/injection, schedule: Q01DX009 (ip), vehicle: saline
  T/C: 91 % of control
dose: 12.5 mg/kg/injection, schedule: Q01DX009 (ip), vehicle: saline
  T/C: 96 % of control
dose: 25.0 mg/kg/injection, schedule: Q01DX009 (ip), vehicle: saline
  T/C: 102 % of control
dose: 50.0 mg/kg/injection, schedule: Q01DX009 (ip), vehicle: saline
  T/C: 115 % of control
[9]
  T/C: 110 % of control
dose: 100.0 mg/kg/injection, schedule: Q01DX009 (ip), vehicle: saline
  T/C: 107 % of control

## C[CH2][Ge]1([CH2]C)[CH2]CC2(CCN(CCCN(C)C)C2)C[CH2]1
[12]
  T/C: 94 % of control and 103 % of control
[13]
  T/C: 96 % of control and 104 % of control and 107 % of control

## CCCCN(C)N=Nc1ccc([N+](=O)[O-])cc1C(N)=O
[8]
  T/C: 114 % of control
[17]
  T/C: 171 % of control
[18]
  T/C: 158 % of control

## [Cl][Pt+2][Cl].[NH-]C1CCC1.[NH-]C1CCC1
dose: 10.0 mg/kg/injection, schedule: Q01DX005 (ip), vehicle: dextrose
  T/C: 103 % of control
dose: 20.0 mg/kg/injection, schedule: Q01DX005 (ip), vehicle: dextrose
  T/C: 103 % of control
dose: 80.0 mg/kg/injection, schedule: Q01DX005 (ip), vehicle: dextrose
  T/C: 90 % of control

## CN(C)/N=N/c1[nH]ncc1C(N)=O
[14]
  T/C: 150 % of control
[15]
  T/C: 176 % of control
[17]
  T/C: 151 % of control
[19]
  T/C: 155 % of control
[16]
  T/C: 96 % of control

## O=[N+]([O-])O.[Ga]
[14]
  T/C: 107 % of control
[15]
  T/C: 100 % of control
[19]
  T/C: 105 % of control

## COc1ccc2cc1Oc1ccc(cc1)C[C@H]1c3cc(c(OC)cc3CCN1C)Oc1c(OC)c(OC)cc3c1[C@H](C2)N(C)CC3
[2]
  T/C: 100 % of control
[3]
  T/C: 88 % of control
[4]
  T/C: 108 % of control
[5]
  T/C: 91 % of control

## COc1cccc2c1C(=O)c1c(O)c3c(c(O)c1C2=O)C[C@@](O)(/C(C)=N/NC(=O)c1ccccc1)C[C@@H]3OC1CC(N)C(O)C(C)O1 (some centres undefined)
[10]
  T/C: 97 % of control
[11]
  T/C: 95 % of control
[12]
  T/C: 98 % of control

## CC/C(=C(/CC)c1ccc(O)cc1)c1ccc(O)cc1
[7]
  T/C: 102 % of control
[8]
  T/C: 102 % of control
[9]
  T/C: 109 % of control
[17]
  T/C: 104 % of control

## O=c1[nH]c(=O)n([C@H]2CCCO2)cc1F
[6]
  T/C: 98 % of control and 100 % of control
[12]
  T/C: 92 % of control
[7]
  T/C: 93 % of control and 104 % of control
[13]
  T/C: 91 % of control
[8]
  T/C: 106 % of control and 109 % of control
[14]
  T/C: 92 % of control and 96 % of control
[9]
  T/C: 104 % of control and 105 % of control
[15]
  T/C: 93 % of control and 103 % of control
[17]
  T/C: 100 % of control and 119 % of control
[19]
  T/C: 93 % of control and 110 % of control
[18]
  T/C: 124 % of control

## CCCCCCC1CC1C(=O)NCCCCCN=C(N)N (centres undefined)
dose: 10.0 mg/kg/injection, schedule: Q01DX005 (ip), vehicle: Klucel (hydroxypropylcellulose) (HPC)
  T/C: 96 % of control
dose: 20.0 mg/kg/injection, schedule: Q01DX005 (ip), vehicle: Klucel (hydroxypropylcellulose) (HPC)
  T/C: 102 % of control
dose: 40.0 mg/kg/injection, schedule: Q01DX005 (ip), vehicle: Klucel (hydroxypropylcellulose) (HPC)
  T/C: 101 % of control
